US20160130443A1, “PHTHALOCYANINE DYE USED FOR COLOR FILTER OF A LCD” (DOW GLOBAL TECHNOLOGIES LLC, priority 2013, published 2016)

Key:
Assay type in all cases: physicochemical
[1] = Thermal stability of dyes (mass loss measured by TGA); details: air atmosphere
Protocol: (1) Thermal Stability of Dyes (Mass Loss Measured by TGA):
The thermal stability of dye itself was determined by the mass loss of dye measured by TGA under air atmosphere at 230° C. for 1 hour. This evaluation reflects chemical stability of the dye itself

[2] = Solubility of dye in organic solvent at 25° C.
[3] = Thermal stability of films (chromaticity difference before and after hard baking); details: for Thermal stability of a film at 230° C. (ΔEab): film with acrylic resin baked at 230° C. under air for 1 hour, smaller = better heat resistance; for Thermal stability (in words): summary referring to Table 1
Protocol: The obtained dry film was baked at 230° C. under air for 1 hour to evaluate thermal stability of the film. Optical performance before and after baking (ΔEab value) was 1.6. A smaller ΔEab value indicates better heat resistance.
(4) Thermal Stability of Films (Chromaticity):
The wet film after spin coating is dried in oven at 90° C. for 30 minutes and then soft baked at 150° C. for 15 minutes. The chromaticity coordinates (L, a, b) are recorded with UltraScan Pro (Hunterlab) colorimeter. D65 light source is used and results are based on CIE Lab coordinates. After that the film is hard baked at target temperature (230° C.) for 1 hour and the new chromaticity coordinates (L′, a′, b′) are recorded with the method above. The thermal stability of a film is indicated by the difference of chromaticity coordinate before and after hard baking represented by the following formula;
ΔE=√{square root over ((L−L′)^2+(a−a′)^2+(b−b′)^2)}

Mass loss measured by TGA at 230° C. for 1 hour (%) [1] [%] | Solubility in PGMEA at 25° C. (wt %) [2] | Solubility in cyclohexanone at 25° C. (wt %) [2] | Thermal stability of a film at 230° C. (ΔEab) [3] | Thermal stability (in words) [3] | Compound | Solubility in cyclohexanone and PGMEA (in words) ([2]; summary referring to Table 1)
14.04 | 1.23 wt % | 3.0 wt % | 18.4 | very poor thermal stability | CNc1ccc(Nc2cccc(C)c2)c2c1C(=O)c1ccccc1C2=O [compound 1, C.I. solvent blue 63] | 
13.08 | 0.17 wt % | 9.0 wt % | 21.5 | very poor thermal stability | CCCCOc1ccc(OCCCC)c2c1-c1nc-2nc2[nH]c(nc3nc(nc4[nH]c(n1)c1c(OCCCC)ccc(OCCCC)c41)-c1c(OCCCC)ccc(OCCCC)c1-3)c1c(OCCCC)ccc(OCCCC)c21 [compound 3] | 
9.56 | 1.98 wt % | 4.0 wt % | 13.3 | very poor thermal stability | C.I. disperse red 343 [compound 2] | 

Compound | Mass loss measured by TGA at 230° C. for 1 hour (%) [1] [%] | Solubility in PGMEA at 25° C. (wt %) [2] | Solubility in cyclohexanone at 25° C. (wt %) [2] | Thermal stability of a film at 230° C. (ΔEab) [3] | Thermal stability (in words) [3] | Solubility in cyclohexanone and PGMEA (in words) ([2]; summary referring to Table 1)
c1ccc2c(c1)C1=Nc3c4ccccc4c4[n]3[Cu-2]35[n]6c(c7ccccc7c6=NC6=[N+]3C(=N4)c3ccccc36)=NC2=[N+]15 [compound 4] | 0.02 | insoluble | insoluble |  |  | insoluble
